{"source": "patent US20240350510A1", "about": "“METHODS AND COMPOSITIONS FOR REDUCING TOLERANCE TO OPIOID […] IBOGAINE AND DERIVATIVES THEREOF” (DemeRx, Inc., priority 2014, published 2024)", "test": "Effect of ibogaine on QT interval in treated patients", "type": "in vivo, human", "settings": "stated in words only, no values", "excerpt": "A prolonged QT interval is a marker of potential Torsades de Pointes, a serious arrhythmia that can result in death. For reasons that are not apparent, this prolongation increases in opioid addicted patients as compared to healthy individuals. […] It is expected that other compounds that share ibogaine's core structure will have a similar prolongation effect on QT interval. See, U.S. Provisional Patent Application No. 61/945,746 filed Feb. 27, 2014 entitled METHOD FOR ACUTE AND LONG-TERM TREATMENT OF DRUG ADDICTION, which application is incorporated by reference in its entirety.\nThe effect of ibogaine, ibogaine derivative, or a pharmaceutically acceptable salt and/or solvate thereof on QT interval is evaluated in substance-dependent participants in a randomized, placebo-controlled, double-blind trial. Patients are administered 60 mg or 120 mg of the compound and QT interval is measured.", "data": [{"smiles": "CCC1CC2CC3c4[nH]c5ccc(OC)cc5c4CCN(C2)C13", "note": "(stereo not shown) [ibogaine]", "values": [{"measurement": "prolongation of the treated patient's QT interval", "value": "dose dependent prolongation"}]}]}
